Reference: ChEMBL document CHEMBL4270518 (Eur J Med Chem, 2018)
Activity calls are given as the source filed them. No cut-off for these calls is given here.

Key:
[1] = biological target: T1, Protein deacetylase HDAC6 (Homo sapiens, UniProt Q9UBN7); assay: Inhibition of human recombinant HDAC6 using RHKKAcAMC as substrate by fluorescence assay
T1 sequence (Q9UBN7 whole entry): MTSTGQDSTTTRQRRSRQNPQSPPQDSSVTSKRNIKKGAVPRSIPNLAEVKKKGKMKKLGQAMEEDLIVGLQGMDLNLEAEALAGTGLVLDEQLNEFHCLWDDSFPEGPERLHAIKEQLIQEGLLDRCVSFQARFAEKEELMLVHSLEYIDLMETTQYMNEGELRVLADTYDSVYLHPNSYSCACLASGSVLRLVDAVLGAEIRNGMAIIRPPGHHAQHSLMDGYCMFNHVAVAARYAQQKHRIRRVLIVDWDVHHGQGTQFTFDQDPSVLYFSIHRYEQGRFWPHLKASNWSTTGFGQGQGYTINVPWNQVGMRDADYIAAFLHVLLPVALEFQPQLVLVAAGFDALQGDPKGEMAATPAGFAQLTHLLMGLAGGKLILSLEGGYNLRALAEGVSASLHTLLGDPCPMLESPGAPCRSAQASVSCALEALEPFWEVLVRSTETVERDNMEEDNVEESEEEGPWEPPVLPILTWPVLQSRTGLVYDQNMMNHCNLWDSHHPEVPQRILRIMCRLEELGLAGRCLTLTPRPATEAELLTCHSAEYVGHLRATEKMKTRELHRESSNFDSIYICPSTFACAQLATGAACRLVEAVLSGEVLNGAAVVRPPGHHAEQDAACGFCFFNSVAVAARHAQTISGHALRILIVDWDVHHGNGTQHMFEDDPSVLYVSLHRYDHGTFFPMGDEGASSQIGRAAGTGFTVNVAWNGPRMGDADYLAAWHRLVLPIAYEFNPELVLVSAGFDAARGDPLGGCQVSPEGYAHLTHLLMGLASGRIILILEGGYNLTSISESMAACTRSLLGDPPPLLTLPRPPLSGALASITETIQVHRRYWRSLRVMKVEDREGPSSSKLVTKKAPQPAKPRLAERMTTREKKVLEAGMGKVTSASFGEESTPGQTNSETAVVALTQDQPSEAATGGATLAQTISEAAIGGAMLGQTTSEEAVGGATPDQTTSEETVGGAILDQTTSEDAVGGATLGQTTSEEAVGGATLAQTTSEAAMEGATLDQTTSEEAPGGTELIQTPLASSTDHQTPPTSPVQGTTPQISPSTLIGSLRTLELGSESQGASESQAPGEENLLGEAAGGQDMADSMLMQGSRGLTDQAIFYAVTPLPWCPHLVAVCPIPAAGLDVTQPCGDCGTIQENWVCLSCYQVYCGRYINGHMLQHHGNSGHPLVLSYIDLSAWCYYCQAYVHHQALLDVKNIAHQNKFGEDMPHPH

MV4-11 [2] = assay: Inhibition of class 1 HDAC in human MV4-11 cells assessed as hyperacetylation of histone H3 at 200 nM after 24 hrs by Western blot analysis; assay type: cell-based
[3] = biological target: T2, Protein deacetylase HDAC6 (Homo sapiens) (UniProt Q9UBN7); assay: Inhibition of HDAC6 in human MV4-11 cells assessed as accumulation of acetylated alpha-tubulin at 50 nM after 24 hrs by Western blot analysis; assay type: cell-based
T2 sequence (whole entry): T1 sequence (Q9UBN7 whole entry)

Histone deacetylase 1 = Histone deacetylase 1 (Homo sapiens, UniProt Q13547); assay: Inhibition of human recombinant HDAC1 using RHKKAcAMC as substrate by fluorescence assay
Chain of Histone deacetylase 1 (Q13547 whole entry): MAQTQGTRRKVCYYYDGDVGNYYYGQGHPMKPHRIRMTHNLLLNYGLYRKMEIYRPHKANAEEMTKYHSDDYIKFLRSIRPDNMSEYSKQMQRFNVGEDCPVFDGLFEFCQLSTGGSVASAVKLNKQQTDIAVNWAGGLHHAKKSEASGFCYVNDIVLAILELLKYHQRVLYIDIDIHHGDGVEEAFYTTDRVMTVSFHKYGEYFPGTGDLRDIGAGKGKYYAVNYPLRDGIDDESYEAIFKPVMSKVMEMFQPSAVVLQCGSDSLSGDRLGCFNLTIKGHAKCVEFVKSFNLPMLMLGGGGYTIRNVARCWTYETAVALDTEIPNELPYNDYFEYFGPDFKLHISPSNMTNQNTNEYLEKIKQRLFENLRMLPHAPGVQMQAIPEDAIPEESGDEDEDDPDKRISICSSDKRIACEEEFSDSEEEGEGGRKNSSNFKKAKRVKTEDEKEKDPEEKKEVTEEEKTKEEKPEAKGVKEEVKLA

Histone deacetylase 2 = Histone deacetylase 2 (Homo sapiens, UniProt Q92769); assay: Inhibition of human recombinant HDAC2 using RHKKAcAMC as substrate by fluorescence assay
Chain of Histone deacetylase 2 (Q92769 whole entry): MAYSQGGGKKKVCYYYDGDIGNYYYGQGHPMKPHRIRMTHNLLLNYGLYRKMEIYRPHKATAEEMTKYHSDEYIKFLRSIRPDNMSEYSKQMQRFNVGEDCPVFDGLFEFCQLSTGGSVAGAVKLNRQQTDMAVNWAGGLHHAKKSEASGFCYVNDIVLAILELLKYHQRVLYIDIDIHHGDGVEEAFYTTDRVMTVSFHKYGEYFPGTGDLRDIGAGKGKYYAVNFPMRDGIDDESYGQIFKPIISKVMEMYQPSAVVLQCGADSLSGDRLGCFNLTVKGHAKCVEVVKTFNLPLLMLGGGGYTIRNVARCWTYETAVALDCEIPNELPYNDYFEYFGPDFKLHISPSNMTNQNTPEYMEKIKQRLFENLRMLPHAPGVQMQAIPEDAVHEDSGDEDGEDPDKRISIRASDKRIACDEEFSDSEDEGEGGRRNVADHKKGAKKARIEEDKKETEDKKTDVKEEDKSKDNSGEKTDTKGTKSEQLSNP

Histone deacetylase 4 = Histone deacetylase 4 (Homo sapiens, UniProt P56524); assay: Inhibition of human recombinant HDAC4 using fluorogenic trifluoroacetyl lysine as substrate by fluorescence assay
Chain of Histone deacetylase 4 (P56524 whole entry): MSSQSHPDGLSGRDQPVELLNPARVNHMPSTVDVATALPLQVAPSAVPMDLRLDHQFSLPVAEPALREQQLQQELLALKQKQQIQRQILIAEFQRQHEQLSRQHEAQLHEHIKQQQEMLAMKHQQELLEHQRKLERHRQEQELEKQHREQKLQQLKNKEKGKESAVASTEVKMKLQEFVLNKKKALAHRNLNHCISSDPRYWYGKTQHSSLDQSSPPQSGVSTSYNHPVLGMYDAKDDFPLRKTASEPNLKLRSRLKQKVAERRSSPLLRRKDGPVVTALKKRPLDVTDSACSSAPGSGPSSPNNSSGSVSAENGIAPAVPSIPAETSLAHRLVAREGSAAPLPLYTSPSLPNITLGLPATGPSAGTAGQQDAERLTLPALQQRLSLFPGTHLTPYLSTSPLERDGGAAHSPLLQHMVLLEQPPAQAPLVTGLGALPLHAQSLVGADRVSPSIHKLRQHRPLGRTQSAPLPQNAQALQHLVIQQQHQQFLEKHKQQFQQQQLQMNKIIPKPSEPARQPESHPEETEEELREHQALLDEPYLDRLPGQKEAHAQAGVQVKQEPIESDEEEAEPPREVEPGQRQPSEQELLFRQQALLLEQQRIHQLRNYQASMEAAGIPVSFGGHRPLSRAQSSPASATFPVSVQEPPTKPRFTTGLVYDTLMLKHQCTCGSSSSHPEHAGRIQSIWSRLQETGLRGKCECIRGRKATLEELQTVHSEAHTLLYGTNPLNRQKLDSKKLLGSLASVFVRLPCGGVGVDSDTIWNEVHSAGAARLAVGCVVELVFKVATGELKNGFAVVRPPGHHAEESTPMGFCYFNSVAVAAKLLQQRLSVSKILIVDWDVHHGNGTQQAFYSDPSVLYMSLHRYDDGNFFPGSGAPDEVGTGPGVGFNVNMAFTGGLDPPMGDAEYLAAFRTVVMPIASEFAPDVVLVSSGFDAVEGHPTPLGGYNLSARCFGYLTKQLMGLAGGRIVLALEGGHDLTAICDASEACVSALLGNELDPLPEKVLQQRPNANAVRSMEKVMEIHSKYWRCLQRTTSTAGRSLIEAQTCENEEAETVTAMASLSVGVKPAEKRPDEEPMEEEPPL

Histone deacetylase 8 = biological target: T3, Histone deacetylase 8 (Homo sapiens, UniProt Q9BY41); assay: Inhibition of human recombinant HDAC8 using RHKAcKAcAMC as substrate by fluorescence assay
T3 sequence (Q9BY41 whole entry): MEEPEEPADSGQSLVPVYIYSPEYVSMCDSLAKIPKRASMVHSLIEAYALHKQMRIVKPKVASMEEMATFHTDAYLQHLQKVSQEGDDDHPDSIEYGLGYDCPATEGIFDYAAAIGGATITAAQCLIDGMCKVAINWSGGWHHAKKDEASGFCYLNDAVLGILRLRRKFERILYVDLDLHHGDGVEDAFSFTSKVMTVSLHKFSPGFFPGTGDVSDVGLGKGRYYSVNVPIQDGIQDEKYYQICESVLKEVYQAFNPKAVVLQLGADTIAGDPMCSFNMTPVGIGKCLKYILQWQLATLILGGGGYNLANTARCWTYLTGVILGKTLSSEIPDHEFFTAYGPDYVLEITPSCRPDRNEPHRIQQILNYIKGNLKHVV

[4] = biological target: T4, Polyamine deacetylase HDAC10 (Homo sapiens, UniProt Q969S8); assay: Inhibition of human recombinant HDAC10 using RHKKAcAMC as substrate by fluorescence assay
T4 sequence (Q969S8 whole entry): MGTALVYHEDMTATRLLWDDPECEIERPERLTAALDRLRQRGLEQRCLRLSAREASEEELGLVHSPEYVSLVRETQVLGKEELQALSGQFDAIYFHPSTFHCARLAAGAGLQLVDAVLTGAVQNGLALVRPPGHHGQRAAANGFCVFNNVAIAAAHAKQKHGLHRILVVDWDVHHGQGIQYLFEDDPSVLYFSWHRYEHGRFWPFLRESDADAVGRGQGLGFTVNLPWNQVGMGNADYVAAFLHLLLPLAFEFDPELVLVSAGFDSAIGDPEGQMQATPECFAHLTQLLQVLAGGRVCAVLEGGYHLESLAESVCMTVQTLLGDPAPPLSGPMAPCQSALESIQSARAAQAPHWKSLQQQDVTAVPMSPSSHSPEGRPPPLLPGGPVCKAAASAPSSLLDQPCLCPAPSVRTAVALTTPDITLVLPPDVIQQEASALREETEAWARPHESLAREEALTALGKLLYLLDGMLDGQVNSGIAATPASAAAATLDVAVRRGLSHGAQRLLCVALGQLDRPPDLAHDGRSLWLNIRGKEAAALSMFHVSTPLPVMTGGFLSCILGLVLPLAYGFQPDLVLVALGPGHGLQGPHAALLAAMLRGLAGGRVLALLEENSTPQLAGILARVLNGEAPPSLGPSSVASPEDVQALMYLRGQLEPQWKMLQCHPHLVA

Homo sapiens [5] = species: Homo sapiens; assay: Selectivity ratio of IC50 for human recombinant HDAC2 to IC50 for human recombinant HDAC6
Homo sapiens [6] = species: Homo sapiens; assay: Selectivity ratio of IC50 for human recombinant HDAC8 to IC50 for human recombinant HDAC6
Homo sapiens [7] = species: Homo sapiens; assay: Selectivity ratio of IC50 for human recombinant HDAC1 to IC50 for human recombinant HDAC6
Homo sapiens [8] = species: Homo sapiens; assay: Selectivity ratio of IC50 for human recombinant HDAC4 to IC50 for human recombinant HDAC6
MV4-11 [9] = assay: Inhibition of class 1 HDAC in human MV4-11 cells assessed as hyperacetylation of histone H3 at higher concentration after 24 hrs by Western blot analysis; assay type: cell-based
[10] = biological target: T2, Protein deacetylase HDAC6 (Homo sapiens); assay: Inhibition of HDAC6 in human MV4-11 cells assessed as accumulation of acetylated alpha-tubulin at 200 nM after 10 to 1440 mins by Western blot analysis; assay type: cell-based
[11] = biological target: T2, Protein deacetylase HDAC6 (Homo sapiens); assay: Inhibition of HDAC6 in human MV4-11 cells assessed as accumulation of acetylated alpha-tubulin at 200 nM by Western blot analysis; assay type: cell-based; settings: TDE = time-dependent effect
MV4-11 [12] = assay: Induction of apoptosis in human MV4-11 cells up to 1 uM after 24 to 48 hrs by Annexin V-PI staining based flow cytometry; assay type: functional, cell-based
MV4-11 [13] = assay: Cell cycle arrest in human MV4-11 cells up to 1 uM after 24 to 48 hrs by propidium iodide staining based flow cytometry; assay type: functional
MV4-11 [14] = assay: Induction of apoptosis in human MV4-11 cells at 30 nM after 24 to 48 hrs by Annexin V-PI staining based flow cytometry; assay type: functional, cell-based
MV4-11 [15] = assay: Induction of apoptosis in human MV4-11 cells at 5 uM after 24 to 48 hrs by Annexin V-PI staining based flow cytometry; assay type: functional, cell-based

IC50 [1] [nM]	Structure (SMILES)	inhibition (MV4-11 [2])	other results
60.7	CCCN1CC(=O)N2[C@H](C)c3c(c4ccccc4n3Cc3ccc(C(=O)NO)cc3)C[C@H]2C1=O		
13.6	CN1CC(=O)N2Cc3c(c4ccccc4n3Cc3ccc(C(=O)NO)cc3)CC2C1=O (centres undefined)		
2.38	CN1C(=O)C2Cc3c(n(Cc4ccc(C(=O)NO)cc4)c4ccccc34)CN2C1=O (centres undefined)		
3.78	CC(C)CN1CC(=O)N2Cc3c(c4ccccc4n3Cc3ccc(C(=O)NO)cc3)CC2C1=O (centres undefined)	Active	
3.73	CCCN1CC(=O)N2Cc3c(c4ccccc4n3Cc3ccc(C(=O)NO)cc3)CC2C1=O (centres undefined)	Active	inhibition [3]: Active; IC50 (Histone deacetylase 1): 8450 nM; IC50 (Histone deacetylase 2): 3340 nM; IC50 (Histone deacetylase 4): 20500 nM; IC50 (Histone deacetylase 8): 747 nM; IC50 [4]: 39500 nM; Ratio IC50 (Homo sapiens [5]): 900; Ratio IC50 (Homo sapiens [6]): 200; Ratio IC50 (Homo sapiens [7]): 2260; Ratio IC50 (Homo sapiens [8]): 5500; inhibition (MV4-11 [9]): Active; inhibition [10]: Active; inhibition [11]: Tde; Activity (MV4-11 [12]): inactive; Activity (MV4-11 [13]): inactive
3.26	CCCCN1CC(=O)N2Cc3c(c4ccccc4n3Cc3ccc(C(=O)NO)cc3)CC2C1=O (centres undefined)	Active	
	Cc1[nH]c2ccccc2c1CCNCc1ccc(/C=C/C(=O)NO)cc1		Activity (MV4-11 [14]): Active
	Nc1ccccc1NC(=O)c1ccc(CNC(=O)OCc2cccnc2)cc1	Active	Activity (MV4-11 [15]): Active
1.66	CCCN1CC(=O)N2Cc3c(c4cc(OC)ccc4n3Cc3ccc(C(=O)NO)cc3)CC2C1=O (centres undefined)		
83.5	CCCN1CC(=O)N2[C@@H](Cc3c(n(Cc4ccc(C(=O)NO)cc4)c4ccccc34)[C@@H]2C)C1=O		
0.89	CCCN1CC(=O)N2Cc3c(c4cc(O)ccc4n3Cc3ccc(C(=O)NO)cc3)CC2C1=O (centres undefined)		
24.1	CC(C)CCN1CC(=O)N2Cc3c(c4ccccc4n3Cc3ccc(C(=O)NO)cc3)CC2C1=O (centres undefined)	Active	
9.32	CCCCN1C(=O)C2Cc3c(n(Cc4ccc(C(=O)NO)cc4)c4ccccc34)CN2C1=O (centres undefined)		
4.54	CCN1C(=O)C2Cc3c(n(Cc4ccc(C(=O)NO)cc4)c4ccccc34)CN2C1=O (centres undefined)	Active	
1.25	CCCN1CC(=O)N2Cc3c(c4cc(OCc5ccccc5)ccc4n3Cc3ccc(C(=O)NO)cc3)CC2C1=O (centres undefined)		
1.8	CCCN1CC(=O)N2[C@H](Cc3c(n(Cc4ccc(C(=O)NO)cc4)c4ccccc34)[C@@H]2C)C1=O		IC50 (Histone deacetylase 1): 1050 nM; IC50 (Histone deacetylase 2): 1870 nM; IC50 (Histone deacetylase 4): 1440 nM; IC50 (Histone deacetylase 8): 168 nM; IC50 [4]: 1510 nM; Activity (MV4-11 [12]): inactive; Activity (MV4-11 [13]): inactive
18.5	CCCN1CC(=O)N2[C@H](Cc3c(n(Cc4ccc(C(=O)NO)cc4)c4ccccc34)[C@H]2C)C1=O		
8.03	CCN1CC(=O)N2Cc3c(c4ccccc4n3Cc3ccc(C(=O)NO)cc3)CC2C1=O (centres undefined)	Active	
10.1	CCCN1C(=O)C2Cc3c(n(Cc4ccc(C(=O)NO)cc4)c4ccccc34)CN2C1=O (centres undefined)	Active	
